Test results reported in BindingDB's records for patent US20250313563 (The Broad Institute, 2025).
pIC50: −log10 of the molar value. Several values for one entry are separate records, joined by “and”; a condition that tells them apart may be missing. Equal entries are not always repeated.

Columns and labels:
[1] = biological target: Glycogen synthase kinase-3 alpha (Homo sapiens, UniProt P49840); assay: TR-FRET Assay
Procedure, shortened: (§1)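 TR-FRET readout: streptavidin-d2 (40 nM in added detection mix) plus Tb-anti-pSer641 Ab (2 nM in mix). Steps were 30 min compound preincubation, kinase reaction, then EDTA stop.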

[2] = biological target: Glycogen synthase kinase-3 beta (Homo sapiens, UniProt P49841); assay: TR-FRET Assay
Sequence of Glycogen synthase kinase-3 beta (P49841 whole entry): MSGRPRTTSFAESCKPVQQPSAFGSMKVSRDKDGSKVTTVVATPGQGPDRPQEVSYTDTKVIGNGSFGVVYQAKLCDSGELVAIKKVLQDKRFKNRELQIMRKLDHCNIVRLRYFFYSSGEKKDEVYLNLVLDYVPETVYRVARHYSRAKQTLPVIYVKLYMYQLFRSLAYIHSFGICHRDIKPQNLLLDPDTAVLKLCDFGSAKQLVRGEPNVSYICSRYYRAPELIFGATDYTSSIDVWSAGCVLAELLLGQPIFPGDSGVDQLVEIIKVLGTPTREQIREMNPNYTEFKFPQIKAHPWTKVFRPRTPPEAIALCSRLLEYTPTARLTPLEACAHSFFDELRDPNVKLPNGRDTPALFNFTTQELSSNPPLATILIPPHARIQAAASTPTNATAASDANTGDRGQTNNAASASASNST
Procedure, shortened: as §1

Sequence of Glycogen synthase kinase-3 alpha (P49840 whole entry): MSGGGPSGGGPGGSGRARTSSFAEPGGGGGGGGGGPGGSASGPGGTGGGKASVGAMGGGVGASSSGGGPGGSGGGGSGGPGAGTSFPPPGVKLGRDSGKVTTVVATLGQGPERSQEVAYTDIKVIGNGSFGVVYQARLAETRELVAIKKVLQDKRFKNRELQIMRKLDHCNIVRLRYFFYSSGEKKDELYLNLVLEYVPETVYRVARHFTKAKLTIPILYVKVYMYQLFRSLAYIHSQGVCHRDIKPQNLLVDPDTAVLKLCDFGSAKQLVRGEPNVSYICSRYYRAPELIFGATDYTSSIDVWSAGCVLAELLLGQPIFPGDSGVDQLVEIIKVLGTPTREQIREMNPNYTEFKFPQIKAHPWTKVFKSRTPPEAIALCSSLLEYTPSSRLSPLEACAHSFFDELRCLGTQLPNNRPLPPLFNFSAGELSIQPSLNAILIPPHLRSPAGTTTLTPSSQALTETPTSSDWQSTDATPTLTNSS

| SMILES | pIC50 [1] | pIC50 [2] |
| --- | --- | --- |
| CC[C@@]1(c2cccc(N(C)c3cnccn3)c2)C2=CN=NC2NC2=C1C(=O)CC(C)(C)C2 (stereo partly specified) [US20250313563, Compound 915340] | 6.00 to 7.00 | 5.30 to 6.00 |
| CC[C@@]1(c2cccc(-c3c(C)ccc4c(C)cccc34)c2)C2=C(CC(C)(C)NC2=O)NC2N=NC(F)=C21 (stereo partly specified) [US20250313563, Compound 949392] | 5.30 to 6.00 | < 5.30 |
| CC[C@@]1(c2cccc(-c3ccncc3F)c2)C2=C(CC(C)(C)CC2=O)NC2N=NC(C)=C21 (stereo partly specified) [US20250313563, Compound 913017] | 6.00 to 7.00 | 6.00 to 7.00 |
| CC[C@@]1(c2cccc(C(F)(F)F)c2)C2=CN=NC2NC2=C1C(=O)N(C)C[C@H]2C (stereo partly specified) [US20250313563, Compound 883982] | < 5.30 | < 5.30 |
| CC[C@]1(c2cccc(Oc3cncnc3)c2)C2=CN=NC2NC2=C1C(=O)CC(C)(C)C2 (stereo partly specified) [US20250313563, Compound 945933] | > 7.00 | > 7.00 |
| CC[C@@]1(c2cccc(N(C)C(C)=O)c2)C2=CN=NC2NC2=C1C(=O)CC(C)(C)C2 (stereo partly specified) [US20250313563, Compound 810359] | < 5.30 | < 5.30 |
| CC[C@]1(c2cccc(S(=O)(=O)CC3CC3)c2)C2=C(CC(C)(C)NC2=O)NC2N=NC(C(F)(F)F)=C21 (stereo partly specified) [US20250313563, Compound 949175] | > 7.00 | > 7.00 |
| CC1(C)CC(=O)C2=C(C1)NC1=C(CN=N1)C21CCN(S(=O)(=O)C2=CC=C3CC=CC=C3N2)CC1 [US20250313563, Compound 947476] | > 7.00 | > 7.00 |
| CCC1(c2cccc(-c3ccncc3C)c2)C2=C(CC(C)(C)CC2=O)NC2N=NC(C(F)(F)F)=C21 (stereo unspecified) [US20250313563, Compound 945527] | > 7.00 | > 7.00 and 6.00 to 7.00 |
| CC[C@@]1(c2cccc(N(C)c3ncccn3)c2)C2=CN=NC2NC2=C1C(=O)NC(C)(C)C2 (stereo partly specified) [US20250313563, Compound 947826] | > 7.00 | > 7.00 |
| CC[C@]1(c2cccc(N3CCCCC3)c2)C2=C(CC(C)(C)CC2=O)NC2N=NC(C)=C21 (stereo partly specified) [US20250313563, Compound 884115] | 6.00 to 7.00 | 6.00 to 7.00 |
| CC[C@]1(c2cccc(-c3cn(C)nc3C(C)C)c2)C2=C(CC(C)(C)CC2=O)NC2N=NC(C)=C21 (stereo partly specified) [US20250313563, Compound 913040] | 6.00 to 7.00 | 5.30 to 6.00 |
| CC[C@]1(c2cccc(-c3ccnc(C)c3)c2)C2=CN=NC2NC2=C1C(=O)NC1(CCCC1)C2 (stereo partly specified) [US20250313563, Compound 948660] | > 7.00 | > 7.00 |
| CCC1(c2cccc(S(=O)(=O)C(C)C)c2)C2=C(CC(C)(C)NC2=O)NC2N=NC(C(F)(F)F)=C21 (stereo unspecified) [US20250313563, Compound 947800] | > 7.00 | > 7.00 |
| CC(=O)N1CC[C@]2(C1)C1=C(N=NC1)NC1=C2C(=O)CC(C)(C)C1 [US20250313563, Compound 889583] | 5.30 to 6.00 | < 5.30 |
| CC[C@@]1(c2cccc(C(F)(F)F)c2)C2=C(N=NC2)NC2=C1C(=O)N(C)C2(C)C [US20250313563, Compound 918252] | > 7.00 | 6.00 to 7.00 |
| CC1(C)CC(=O)C2=C(C1)NC1=C(CN=N1)C21COC2(CN(C(=O)C3CCC3)C2)C1 (stereo unspecified) [US20250313563, Compound 947288] | > 7.00 and 6.00 to 7.00 | > 7.00 and 6.00 to 7.00 |
| CC[C@]1(c2cccc(N3C[C@@H](C)[C@H](C)C3)c2)C2=CN=NC2NC2=C1C(=O)CC(C)(C)C2 (stereo partly specified) [US20250313563, Compound 924504] | 6.00 to 7.00 | 6.00 to 7.00 |
| CCC1(c2cccc(C(F)(F)F)c2)C2=C(N=NC2)NC2=C1C(=O)N(C)C2 (stereo unspecified) [US20250313563, Compound 917294] | 6.00 to 7.00 | 5.30 to 6.00 |

| SMILES | pIC50 [1] | pIC50 [2] |
| --- | --- | --- |
| CC[C@@]1(c2cccc(-c3ccncc3CO)c2)C2=CN=NC2NC2=C1C(=O)CC(C)(C)C2 (stereo partly specified) [US20250313563, Compound 945479] | 6.00 to 7.00 | 5.30 to 6.00 |
| Cn1nccc1S(=O)(=O)N1CC2(C1)C1=C(N=NC1)NC1=C2C(=O)CC(C)(C)C1 [US20250313563, Compound 932648] | > 7.00 | > 7.00 |
| CC[C@@]1(c2cccc(-c3ccnc4c(F)cccc34)c2)C2=CN=NC2NC2=C1C(=O)NC(C)(C)C2 (stereo partly specified) [US20250313563, Compound 948828] | > 7.00 and 6.00 to 7.00 | 6.00 to 7.00 and 5.30 to 6.00 |
| CCC1(c2cccc(-c3cn(C)nc3C)c2)C2=C(CC(C)(C)CC2=O)NC2N=NC(C)=C21 (stereo unspecified) [US20250313563, Compound 884003] | > 7.00 | > 7.00 |
| CCC1(c2cccc(-c3ccnn3C)c2)C2=CN=NC2NC2=C1C(=O)CC(C)(C)C2 (stereo unspecified) [US20250313563, Compound 883852] | > 7.00 | > 7.00 |
| CC1(C)CC(=O)C2=C(C1)NC1=C(CN=N1)C21CCC2(CC1)COC2 [US20250313563, Compound 883977] | > 7.00 | 6.00 to 7.00 |
| CC[C@@]1(c2cccc(Br)c2)C2=C(C[C@H](C)CC2=O)NC2N=NC(C(F)(F)F)=C21 (stereo partly specified) [US20250313563, Compound 828850] | 6.00 to 7.00 | 6.00 to 7.00 |
| CC[C@]1(c2cccc(N3CCOCC3)c2)C2=C(CC(C)(C)CC2=O)NC2N=NC(C)=C21 (stereo partly specified) [US20250313563, Compound 889581] | > 7.00 | > 7.00 |
| CC1(C)CC(=O)C2=C(C1)NC1N=NC=C1[C@]21C[C@H](c2ccncc2)C1 (stereo partly specified) [US20250313563, Compound 889664] | > 7.00 | 6.00 to 7.00 |
| CC1(C)CC(=O)C2=C(C1)NC1N=NC=C1C21CCCN(S(=O)(=O)C2CC2)CC1 (stereo unspecified) [US20250313563, Compound 917137] | > 7.00 | > 7.00 |
| CCC1(c2cccc(N3CCOc4ccccc43)c2)C2=CN=NC2NC2=C1C(=O)CC(C)(C)C2 (stereo unspecified) [US20250313563, Compound 918280] | > 7.00 | > 7.00 |
| CCC1(c2cccc(C(F)F)c2)C2=C(CC(C)(C)NC2=O)NC2N=NC(C)=C21 (stereo unspecified) [US20250313563, Compound 947865] | > 7.00 | > 7.00 |
| CCC1(c2cccc(-c3cnn(C)c3)c2)C2=CN=NC2NC2=C1C(=O)NC(C)(C)C2 (stereo unspecified) [US20250313563, Compound 943912] | > 7.00 | 5.30 to 6.00 |
| CC1(C)CC(=O)C2=C(C1)NC1=C(CN=N1)C21CN(CC2CCCC2)C1 [US20250313563, Compound 943914] | < 5.30 | < 5.30 |
| CC[C@]1(c2cccc(-c3ccnc(N(C)C)c3)c2)C2=C(CC(C)(C)CC2=O)NC2N=NC(C)=C21 (stereo partly specified) [US20250313563, Compound 913048] | 6.00 to 7.00 | 5.30 to 6.00 |
| CC1CCC(CC(=O)N2CC3(C2)CC2(CO3)C3=C(N=NC3)NC3=C2C(=O)CC(C)(C)C3)C1 (stereo unspecified) [US20250313563, Compound 947269] | > 7.00 and 6.00 to 7.00 | > 7.00 and 6.00 to 7.00 |
| CC1(C)CC(=O)C2=C(C1)NC1=C(CN=N1)C2(C)c1cccc(-c2ccccc2)c1 (stereo unspecified) [US20250313563, Compound 789513] | 6.00 to 7.00 | 6.00 to 7.00 |
| CC[C@]1(c2cccc(C(C)C)c2)C2=CN=NC2NC2=C1C(=O)CC(C)(C)C2 (stereo partly specified) [US20250313563, Compound 810373] | > 7.00 and 6.00 to 7.00 | > 7.00 and 5.30 to 6.00 |
| CC[C@]1(c2cccc(-c3ccnc(C)c3)c2)C2=CN=NC2NC2=C1C(=O)[C@@H]1CC[C@H]2C1 (stereo partly specified) [US20250313563, Compound 943921] | 5.30 to 6.00 | < 5.30 |
